{"source": "ChEMBL document CHEMBL1143492", "about": "“Design, synthesis, and bioavailability evaluation of coumarin-based prodrug of meptazinol” (Bioorg Med Chem Lett, 2005)", "test": "Area under curve was determined after intravenous administration (29.7 umol/kg) in rat", "format": "ADME", "details": "in vivo"}
{"smiles": "CCC1(c2cccc(O)c2)CCCCN(C)C1", "note": "(stereo unspecified) [MEPTAZINOL]", "values": [{"measurement": "AUC", "result": 1990, "unit": "ng·h/mL"}]}
